Assay results as given in US6482856B1, “Method and composition for treating mammalian disease caused by inflammatory response” (Cellular Sciences, Inc., priority 1995, dated 2002).
Read-outs that look alike come from different tables or passages of the source.

How the values were obtained:
[1] = test system: bacterial and yeast systems; settings: cited from earlier work
urinary calculi (stones) = settings: rats fed calcium-oxalate lithogenic diet, versus control rats; cited from earlier work
[2] = test system: emphysema and restrictive airway disease; assay: Inhalation of nebulized sodium pyruvate solution by a patient; lung capacity and lung function tests; type: in vivo, human
Method: Subject: A person suffering from emphysema and restrictive airway disease was treated as described below for three (3) months.
Treatment: The treatment was conducted as follows: Five (5) milliliters of five (5) millimolar sodium pyruvate solution is filter sterilized through a 0.2 micron filter. The sterile pyruvate solution is placed into a “Pulmo Aid” nebulizer manufactured by DeVilbiss Co., Somerset, Pa. 15501-0635. The sterile pyruvate solution is nebulized by the Pulmo Aid device fitted with a disposable nebulizer and inhaled by the patient. The patient inhales normally from the Pulmo Aid nebulizer until all of the solution has been nebulized and inhaled. This inhalation step typically takes about ten (10) to twenty (20) minutes.
The patient is treated with this inhalation therapy periodically. Initially, treatments are about four (4) times a day at about six (6) hour intervals. Treatments were reduced to three (3) times a day at about eight (8) hour intervals after 30 days of therapy. Treatments were further reduced to once a day 60 DAYS AFTER ONSET OF TREATMENT. After ninety (90) days treatments are three to five times a week.

L1210 leukemia = settings: advanced L1210 leukemia; cited from earlier work
sodium sulfide = settings: in vivo; cited from earlier work
cyanide intoxication = settings: in vivo; cited from earlier work
gastric mucosa [3] = settings: rats; caused by acetylsalicylic acid; cited from earlier work
gastric mucosa [4] = settings: guinea pigs; caused by acetylsalicylic acid; cited from earlier work
[5] = test system: acrylamide neuropathy of axons; settings: in vivo; cited from earlier work
[6] = twenty to thirty minutes after initial treatment

In the case of `CC(=O)C(=O)[O-].[Na+]` [sodium pyruvate], the growth [1] is given as “enhance”, the hydrogen peroxide production [1] is given as “inhibit” and the “toxicity of reactive oxygen intermediates” value [1] is given as “protect”. The “urinary calculi (stones)” value (urinary calculi (stones)) was “fewer”, the “MVV (maximum ventilatory volume)” value ([2]; After Two Months Treatment, Before: 19) was 25 and the “DCO (diffusion of carbon monoxide)” value ([2]; After Two Months Treatment, Before: 27) was 39 MI/min/mm Hg. For the same compound, the “DSB (diffusion single breath)” value ([2]; After Two Months Treatment, Before: 42) was 52, the “ERV (expiratory reserve volume)” value ([2]; After Two Months Treatment, Before: 62) was 110 and the “IC (inspiratory capacity)” value ([2]; After Two Months Treatment, Before: 64) was 69. For the same compound, the “O SAT (oxygen saturation)” value ([2]; After Two Months Treatment, Before: 91) was 95, the “SVC (slow vital capacity)” value ([2]; After Two Months Treatment, inhaled 5 ml of 5 millimolar solution, Before: 63) was 83 and the “overall condition of the subject” value ([2]; after three (3) months treatment) was “marked improvement”. For the same compound, the Improved lung function ([2]; conclusion of the treatment) was 20%, the “Increased exercise tolerance, tested and certified” value ([2]; conclusion of the treatment) was “close to that of a person without emphysema and restrictive airway disease” and the Mental attitude ([2]; conclusion of the treatment) was “greatly improved”. The Reactive airway disease ([2]; conclusion of the treatment) was “reduced to the point that routine use of inhalers is not needed”, the “recurrence of decreased pulmonary functions” value ([2]; conclusion of the treatment) was “No recurrence” and the exercise tolerance [2, 6] was “increase”. For the same compound, the tidal volume [2, 6] was “increases”, the wheezing [2, 6] was “stops” and the Use of oxygen ([2]; when treatment started) was “eliminated immediately”. For the same compound, the overall results ([2]; within two (2) weeks) was “dramatic results”, the “abnormally deformed red blood cells” value (L1210 leukemia) was “restore abnormally deformed red blood cells to normal” and the “effect on lethal effects of sodium sulfide” value (sodium sulfide) was “protect”. The “effect on cyanide intoxication” value (cyanide intoxication) was “antagonist”, the “number of erosions, ulcers, and hemorrhages on the gastric mucosa” value (gastric mucosa [3]) was “reduce” and the “number of erosions, ulcers, and hemorrhages on the gastric mucosa” value (gastric mucosa [4]) was “reduce”. For the same compound, the “onset and development of functional, morphological, and biochemical measures of acrylamide neuropathy” value [5] was “retard”.
